Values quoted from earlier work, collected in patent US20240377378A1, “TRACER METHODS FOR THE DETERMINATION OF SORBENT CONTENT IN SOILS” (Regenesis Bioremediation Products, priority 2023, published 2024).

How the values were obtained:
[1] = 2012 OSHA Hazard Communication Standard
[2] = under normal conditions (Congo Red: normal or ambient conditions)
[3] = water

SMILES | pKa | Serious eye damage/eye irritation hazard category [1] | acute oral toxicity hazard category [1] | Chemical Stability [2] | carcinogenicity hazard category [1] | reproductive toxicity hazard category [1] | Solubility [3] [mg/mL] | Hazard Identification: criteria for hazardous classification [1] | Solubility (in words) [3]
CCN(CC)c1ccc2c(-c3ccccc3C(=O)O)c3ccc(=[N+](CC)CC)cc-3oc2c1.[Cl-] [Rhodamine B] | 3.1-3.22 | (Category 1) | (Category 4), | Stable under | – | – | – | – | –
Nc1c(/N=N/c2ccc(-c3ccc(/N=N/c4cc(S(=O)(=O)O)c5ccccc5c4N)cc3)cc2)cc(S(=O)(=O)O)c2ccccc12 [Congo Red] | – | – | – | Stable under | (Category 1B), | (Category 2) | 25 to 116 | – | –
O=S(=O)(O)c1cc(S(=O)(=O)O)c2c(/N=N/c3ccccc3)c(O)ccc2c1 [Orange G] | 11.5 | – | – | Stable under | – | – | 50 to 100 | Does not meet | soluble in water
